The source of these data is ChEMBL document CHEMBL4219269, “Synthesis and anti-staphylococcal activity of novel bacterial topoisomerase inhibitors with a 5-amino-1,3-dioxane linker moiety” (Bioorg Med Chem Lett, 2018).

In series [1] the test system is Staphylococcus aureus. Put plainly: Antibacterial activity against methicillin-sensitive Staphylococcus aureus ATCC 29213 by CLSI method. The class given is functional.
In the next series the test system is K562. Put plainly: Antiproliferative activity against human K562 cells. Format: cell-based.
Series [2] deals with T1, Voltage-gated inwardly rectifying potassium channel KCNH2 (Homo sapiens, UniProt Q12809). Put plainly: Inhibition of human ERG expressed in CHOK1 cells by patch clamp assay. Format: cell-based. A general note: The patch-clamp technique gives a direct electrical read-out from membranes.
Series [3] is described as follows: Inhibition of human topoisomerase-2 in etoposide-resistant K/VP.5 cells assessed as growth inhibition.
Series [4] relates to Staphylococcus aureus. The series can be described thus: Antibacterial activity against methicillin-resistant Staphylococcus aureus USA300 by CLSI method. The class given is functional.
Another series is filed under the species Homo sapiens. Put plainly: Inhibition of human topoisomerase-2 mediated kinetoplast DNA decatenation assessed as remaining activity at 100 uM relative to control.
Series [5] is described as follows: Inhibition of Staphylococcus aureus topoisomerase-4-mediated kinetoplast DNA decatenation after 30 mins by agarose gel electrophoresis.
A short description of series [6]: Selectivity ratio of IC50 for human K562 cells to MIC for methicillin-sensitive Staphylococcus aureus ATCC 29213. The class given is toxicity.
The next series deals with DNA gyrase (Staphylococcus aureus, UniProt P0A0K8+P20831). The series can be described thus: Inhibition of Staphylococcus aureus DNA gyrase supercoiling activity using pBR322 as substrate after 30 mins by agarose gel electrophoresis. Format: protein-complex assay.
Series [7] addresses T1, Voltage-gated inwardly rectifying potassium channel KCNH2. The series can be described thus: Inhibition of human ERG expressed in CHO cells using -80 mV holding potential measured after 3 mins. Format: cell-based.

Molecules are shown by their SMILES. Converted amounts (≈) assume the structure as drawn.

As a reminder, the MIC is the smallest concentration in the dilution series that meets the test's criterion for growth inhibition. A higher MIC goes with a need for much substance. A word on the IC50: it is the concentration needed to halve the response being measured.

T1 sequence (Q12809 whole entry): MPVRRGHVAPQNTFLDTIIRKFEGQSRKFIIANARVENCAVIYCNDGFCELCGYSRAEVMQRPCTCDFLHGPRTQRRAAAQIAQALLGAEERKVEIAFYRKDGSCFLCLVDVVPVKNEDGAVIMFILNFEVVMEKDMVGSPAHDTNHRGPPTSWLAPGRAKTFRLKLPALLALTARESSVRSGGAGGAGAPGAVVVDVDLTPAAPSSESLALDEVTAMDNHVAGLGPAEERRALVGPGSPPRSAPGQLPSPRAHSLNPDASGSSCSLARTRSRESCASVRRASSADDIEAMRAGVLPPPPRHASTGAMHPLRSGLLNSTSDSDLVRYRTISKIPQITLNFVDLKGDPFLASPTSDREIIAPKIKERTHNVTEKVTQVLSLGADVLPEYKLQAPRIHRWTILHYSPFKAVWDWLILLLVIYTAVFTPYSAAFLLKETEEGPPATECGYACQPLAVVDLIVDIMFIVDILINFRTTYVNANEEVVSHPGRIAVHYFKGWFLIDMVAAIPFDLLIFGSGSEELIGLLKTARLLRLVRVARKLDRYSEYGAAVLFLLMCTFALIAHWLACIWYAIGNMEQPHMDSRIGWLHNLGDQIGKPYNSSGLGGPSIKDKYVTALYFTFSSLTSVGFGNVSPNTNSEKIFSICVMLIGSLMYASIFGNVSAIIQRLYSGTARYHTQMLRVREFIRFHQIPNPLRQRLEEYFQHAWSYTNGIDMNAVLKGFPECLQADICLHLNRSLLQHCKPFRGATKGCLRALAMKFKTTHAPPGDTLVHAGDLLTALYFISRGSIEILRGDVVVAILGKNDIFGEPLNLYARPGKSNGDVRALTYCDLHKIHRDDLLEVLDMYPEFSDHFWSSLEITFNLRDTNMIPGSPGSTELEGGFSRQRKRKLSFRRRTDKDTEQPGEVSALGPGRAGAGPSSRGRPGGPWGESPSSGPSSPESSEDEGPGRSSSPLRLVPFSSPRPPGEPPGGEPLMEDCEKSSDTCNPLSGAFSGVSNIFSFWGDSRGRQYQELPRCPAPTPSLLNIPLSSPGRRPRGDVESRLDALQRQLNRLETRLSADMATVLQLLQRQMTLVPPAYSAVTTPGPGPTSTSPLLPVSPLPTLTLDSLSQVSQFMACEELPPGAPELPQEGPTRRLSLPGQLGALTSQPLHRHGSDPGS
DNA gyrase, sequence (P0A0K8 whole entry): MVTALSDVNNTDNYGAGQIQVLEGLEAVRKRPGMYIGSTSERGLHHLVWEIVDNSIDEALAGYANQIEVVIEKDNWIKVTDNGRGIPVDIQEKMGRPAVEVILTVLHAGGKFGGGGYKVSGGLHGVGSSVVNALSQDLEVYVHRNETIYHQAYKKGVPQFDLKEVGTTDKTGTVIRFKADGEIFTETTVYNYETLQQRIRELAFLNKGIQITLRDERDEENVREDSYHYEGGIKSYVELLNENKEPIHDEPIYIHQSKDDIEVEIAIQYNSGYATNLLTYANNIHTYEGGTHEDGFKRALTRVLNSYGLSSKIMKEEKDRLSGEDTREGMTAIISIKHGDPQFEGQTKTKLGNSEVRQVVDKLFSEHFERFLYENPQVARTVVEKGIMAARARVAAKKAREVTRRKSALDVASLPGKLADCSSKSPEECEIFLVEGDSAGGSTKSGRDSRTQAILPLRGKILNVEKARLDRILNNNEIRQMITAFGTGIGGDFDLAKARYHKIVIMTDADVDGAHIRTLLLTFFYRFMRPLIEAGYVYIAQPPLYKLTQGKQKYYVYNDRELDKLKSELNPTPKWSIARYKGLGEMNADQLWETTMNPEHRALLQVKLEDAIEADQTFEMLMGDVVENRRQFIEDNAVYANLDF
DNA gyrase, sequence (P20831 whole entry): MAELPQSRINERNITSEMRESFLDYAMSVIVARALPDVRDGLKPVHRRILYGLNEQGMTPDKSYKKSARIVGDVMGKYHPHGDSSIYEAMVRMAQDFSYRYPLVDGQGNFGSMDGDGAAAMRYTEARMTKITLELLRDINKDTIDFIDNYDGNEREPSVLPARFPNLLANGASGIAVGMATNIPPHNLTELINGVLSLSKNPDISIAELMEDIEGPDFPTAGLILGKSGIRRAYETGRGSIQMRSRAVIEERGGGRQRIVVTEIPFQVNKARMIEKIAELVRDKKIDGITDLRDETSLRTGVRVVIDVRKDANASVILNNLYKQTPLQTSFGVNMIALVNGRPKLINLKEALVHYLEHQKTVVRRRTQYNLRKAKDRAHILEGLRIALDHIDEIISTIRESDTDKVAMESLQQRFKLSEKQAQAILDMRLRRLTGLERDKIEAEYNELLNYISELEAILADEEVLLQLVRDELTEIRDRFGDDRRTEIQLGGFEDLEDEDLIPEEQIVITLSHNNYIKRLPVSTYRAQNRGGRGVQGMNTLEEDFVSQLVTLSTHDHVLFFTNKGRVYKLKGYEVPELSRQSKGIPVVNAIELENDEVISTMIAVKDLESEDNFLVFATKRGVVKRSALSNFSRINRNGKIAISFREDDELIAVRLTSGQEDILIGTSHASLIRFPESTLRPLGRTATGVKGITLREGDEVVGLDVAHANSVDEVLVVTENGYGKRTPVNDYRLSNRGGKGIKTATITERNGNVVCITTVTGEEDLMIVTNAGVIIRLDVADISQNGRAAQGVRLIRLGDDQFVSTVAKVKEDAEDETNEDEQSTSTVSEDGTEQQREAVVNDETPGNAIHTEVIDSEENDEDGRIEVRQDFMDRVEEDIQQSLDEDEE

In the series with Staphylococcus aureus [1], `COc1ccc2nccc(CC[C@H]3OC[C@H](NCc4cccnc4)CO3)c2c1` displayed an MIC above 64 µg/mL.

Consider `COc1ccc2nccc(CC[C@H]3CC[C@H](NCc4ccc5c(n4)NC(=O)CO5)CC3)c2c1`, for which the results for the IC50 (in the series on K562; in series [2]; in series [3]) were 12 µM, 0.41 µM and 11 µM, respectively.

For the molecule `COc1ccc2nccc(CC[C@H]3OC[C@H](NCc4cc5c(cn4)OCCO5)CO3)c2c1`, the minimal inhibitory concentration (MIC) was 2 µg/mL (≈ 4.57 µM) in the series with Staphylococcus aureus [4] and 1 to 2 µg/mL (≈ 2.29 to 4.57 µM) in the series on Staphylococcus aureus [1]. Further, the Activity in the series filed under Homo sapiens amounted to 95.1%. Besides, the IC50 in the series with K562 stood at 40 µM; in series [2], 9.5 µM; in [5] it was 50 µM; in [3], 48 µM.

As to `COc1cc([C@@H]2c3cc4c(cc3[C@@H](O[C@@H]3O[C@@H]5CO[C@@H](C)O[C@H]5[C@H](O)[C@H]3O)[C@H]3COC(=O)[C@H]23)OCO4)cc(OC)c1O` [ETOPOSIDE], the Activity in the series filed under Homo sapiens turned out to be 33.6%. The concentration for half-maximal inhibition (IC50) was 0.3 µM with K562 and 5.1 µM in series [3].

As to `COc1ccc2nccc(CC[C@H]3OC[C@H](NCc4ccccn4)CO3)c2c1`, 8 µg/mL (≈ 21.1 µM) was the least that counted as inhibitory in the series with Staphylococcus aureus [1] (MIC).

For the molecule `COc1ccc2nccc(CC[C@H]3OC[C@H](NCc4ccc5c(n4)NC(=O)CS5)CO3)c2c1`, the minimum inhibitory concentration (MIC) with Staphylococcus aureus [4] and with Staphylococcus aureus [1] was 0.5 µg/mL (≈ 1.07 µM) throughout. In addition, the Activity in the series filed under Homo sapiens was 91.1%. Moreover, the half-maximal inhibitory concentration (IC50) was 31 µM in the series with K562, 1.3 µM in series [2], above 100 µM in series [5] and 34 µM in [3].

Consider `COc1ccc2nccc(CC[C@H]3CC[C@H](NCc4cc5c(cn4)OCCO5)CC3)c2c1`, for which the figures for the concentration for half-maximal inhibition (IC50) (in the series with K562; in series [2]; in series [3]) were 7.5 µM, 0.94 µM and 5.7 µM, respectively.

Regarding `COc1ccc2nccc(CC[C@H]3OC[C@H](NCc4cccc(Cl)c4)CO3)c2c1`, in the series on Staphylococcus aureus [1], it took 32 µg/mL (≈ 77.5 µM) to inhibit growth (MIC).

Consider `COc1ccc2nccc(CC[C@H]3OC[C@H](NCc4ccc5c(c4)NC(=O)CO5)CO3)c2c1`, for which the MIC against Staphylococcus aureus [4] is 1 µg/mL (≈ 2.22 µM); against Staphylococcus aureus [1] it was 1 to 2 µg/mL (≈ 2.22 to 4.45 µM). For the same molecule, in [5], the half-maximal inhibitory concentration (IC50) is above 100 µM.

For `COc1ccc2nccc(CC[C@H]3OC[C@H](NCc4ccc5c(c4)OCCO5)CO3)c2c1`, in series [6], the selectivity ratio is 3.5. For the same molecule, the values for the MIC in the series on Staphylococcus aureus [4] and against Staphylococcus aureus [1] were 0.5 µg/mL (≈ 1.15 µM) and 0.25 to 1 µg/mL (≈ 0.573 to 2.29 µM), respectively. Besides, in the series listed under Homo sapiens, the Activity worked out at 84.2%. In addition, the IC50 in the series on K562 was determined as 7.4 µM; in [2], 5.1 µM; in series [5], 14 µM; in [3], 8.8 µM.

For the molecule `COc1ccc2nccc(CC[C@H]3CC[C@H](NCc4ccc5c(c4)OCCO5)CC3)c2c1`, the 50% inhibitory concentration (IC50) in the series on K562 is 4.2 µM; in series [2], 0.26 µM; in [3], 4.5 µM.

`COc1ccc2nccc(CC[C@H]3OC[C@H](NCc4ccc(Cl)cn4)CO3)c2c1` yielded a minimal inhibitory concentration (MIC) in the series on Staphylococcus aureus [1] of 8 µg/mL (≈ 19.3 µM).

Regarding `COc1ccc2nccc(CC[C@H]3OC[C@H](NCc4ccc(Cl)cc4)CO3)c2c1`, the half-maximal inhibitory concentration (IC50) against DNA gyrase is 1.2 µM; in the series with K562, 12 µM; in [2] it was 2 µM; in [5] it was above 100 µM; in series [3] it was 16 µM. Besides, the MIC against Staphylococcus aureus [4] was found to be 4 µg/mL (≈ 9.69 µM); with Staphylococcus aureus [1], 1 µg/mL (≈ 2.42 µM). In the series listed under Homo sapiens, the Activity turned out to be 97.8%.

For the molecule `COc1ccc2nccc(CCN3CCC(NCc4ccc5c(n4)NC(=O)CO5)CC3)c2c1`, the IC50 with K562 worked out at 19 µM; in series [2], 3.8 µM; in series [3] it was 16 µM.

As to `COc1ccc2nccc(CC[C@H]3OC[C@H](NCc4cc5c(cn4)OCCC5)CO3)c2c1`, the MIC against Staphylococcus aureus [4] stood at 2 µg/mL (≈ 4.59 µM); in the series with Staphylococcus aureus [1], 1 µg/mL (≈ 2.3 µM). Further, the Activity in the series listed under Homo sapiens was determined as 93.8%. The IC50 is 32 µM in the series with K562, 12 µM in series [2], 25 to 50 µM in [5] and 40 µM in series [3].

Turning to `COc1ccc2nccc(CC[C@H]3OC[C@H](NCc4ccc5c(n4)NC(=O)CO5)CO3)c2c1`, the values for the MIC in the series on Staphylococcus aureus [4] and in the series on Staphylococcus aureus [1] were 1 µg/mL (≈ 2.22 µM) and 0.5 µg/mL (≈ 1.11 µM), respectively. The Activity in the series listed under Homo sapiens turned out to be 99.1%. In addition, the concentration for half-maximal inhibition (IC50) with K562 is 24 µM; in [2] it was 2.5 µM; in series [5] it was above 100 µM; in series [3], 44 µM.

`COc1ccc2nccc(CC[C@H]3OC[C@H](NCc4ccc(Cl)c(Cl)c4)CO3)c2c1`: the minimal inhibitory concentration (MIC) in the series on Staphylococcus aureus [4] is 0.5 µg/mL (≈ 1.12 µM). For the same molecule, the Activity in the series filed under Homo sapiens was 93.2%. Moreover, the IC50 in the series on K562 was 20 µM; in [2], 4.8 µM; in [5] it was above 100 µM; in series [3], 15 µM.

`COc1ccc2nccc(CCN3CCC(NCc4ccc(Cl)c(Cl)c4)CC3)c2c1`: the IC50 in series [2] was 1 µM.

Take `O=C(O)c1cn(C2CC2)c2cc(N3CCNCC3)c(F)cc2c1=O` [CIPROFLOXACIN]: in the series listed under Homo sapiens, the Activity was determined as 85.5%. For the same molecule, 14.3 µM corresponded to half-maximal inhibition in series [5] (IC50).

As for `COc1ccc2nccc(CCN3CCC(NCc4ccc5c(c4)OCCO5)CC3)c2c1`, the results for the IC50 (in the series on K562; in series [2]; in series [3]) were 10 µM, 0.81 µM and 12 µM, respectively.

`COc1ccc2nccc(CC[C@H]3OC[C@H](NCc4ccccc4Cl)CO3)c2c1`: the minimum inhibitory concentration (MIC) against Staphylococcus aureus [1] is above 64 µg/mL.

Molecule `CN[C@H](CC(C)C)C(=O)N[C@H]1C(=O)N[C@@H](CC(N)=O)C(=O)N[C@H]2C(=O)N[C@H]3C(=O)N[C@H](C(=O)N[C@H](C(=O)O)c4cc(O)cc(O)c4-c4cc3ccc4O)[C@H](O)c3ccc(c(Cl)c3)Oc3cc2cc(c3O[C@@H]2O[C@H](CO)[C@@H](O)[C@H](O)[C@H]2O[C@H]2C[C@](C)(N)[C@H](O)[C@H](C)O2)Oc2ccc(cc2Cl)[C@H]1O` [VANCOMYCIN] registered an MIC with Staphylococcus aureus [4] of 1 to 2 µg/mL (≈ 0.69 to 1.38 µM).

In turn, `O=c1ccc2ncc(=O)n3c2n1C[C@H]3CN1CCC(NCc2cc3c(cn2)OCCC3)CC1` [GEPOTIDACIN] gave an IC50 in [7] of 1310 µM.

In the case of `COc1ccc2nccc(CCN3CCC(NCc4cc5c(cn4)OCCO5)CC3)c2c1`, the IC50 in the series with K562 amounted to 28 µM; in series [2], 1.9 µM; in series [3], 22 µM.

As to `COc1ccc2nccc(CC[C@H]3CC[C@H](NCc4ccc(Cl)c(Cl)c4)CC3)c2c1`, the IC50 in [2] was determined as 2.3 µM.

In the series on Staphylococcus aureus [1], `COc1ccc2nccc(CC[C@H]3OC[C@H](NCc4ccccc4)CO3)c2c1` displayed a minimum inhibitory concentration (MIC) above 64 µg/mL.
